Measurements published in PubChem BioAssay (NCI).
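Results reflect a 48-hour exposure of cells in 96-well plates to compound at five concentrations. GI50: concentration for 50% inhibition of growth. TGI: concentration producing complete growth inhibition.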 Where a SMILES comes first, the peptide text is derived from it. [ ]: non-standard residue; d: D form.

Assays:
Experiment in all cases: NCI tumour cell line growth inhibition, 48 h
CAKI-1 renal = tested on: CAKI-1 renal
UACC-62 melanoma = tested on: UACC-62 melanoma
M14 melanoma = tested on: M14 melanoma
NCI-H226 lung = tested on: NCI-H226 lung
HCT-116 colon = tested on: HCT-116 colon
HOP-92 NSCLC = tested on: HOP-92 NSCLC
SF-268 CNS = tested on: SF-268 CNS
CCRF-CEM leukemia = tested on: CCRF-CEM leukemia
OVCAR-8 ovarian = tested on: OVCAR-8 ovarian
MALME-3M melanoma = tested on: MALME-3M melanoma

Row | SMILES | TGI (CAKI-1 renal) [µM] | TGI (UACC-62 melanoma) [µM] | TGI (M14 melanoma) [µM] | TGI (NCI-H226 lung) [µM] | TGI (HCT-116 colon) [µM] | TGI (HOP-92 NSCLC) [µM] | TGI (SF-268 CNS) [µM] | TGI (CCRF-CEM leukemia) [µM] | TGI (OVCAR-8 ovarian) [µM] | TGI (MALME-3M melanoma) [µM] | GI50 (CAKI-1 renal) [µM] | GI50 (UACC-62 melanoma) [µM] | GI50 (M14 melanoma) [µM] | GI50 (NCI-H226 lung) [µM] | GI50 (HCT-116 colon) [µM] | GI50 (HOP-92 NSCLC) [µM] | GI50 (SF-268 CNS) [µM] | GI50 (CCRF-CEM leukemia) [µM] | GI50 (OVCAR-8 ovarian) [µM] | GI50 (MALME-3M melanoma) [µM]
1 | O=C1C(OC(=O)c2ccccc2)=C(c2ccc(O)cc2)C(=O)C(OC(=O)c2ccccc2)=C1c1ccc(O)cc1 | > 100 | > 100 | > 100 | > 100 | > 100 | > 100 | > 100 | > 100 | > 100 | > 100 | – | – | – | – | – | – | – | – | – | –
2 | COC(=O)C(C)Oc1ccc(O)cc1 (stereo unspecified) | > 100 | > 100 | > 100 | > 100 | 40.3 | > 100 | 44.5 | > 100 | > 100 | > 100 | – | – | – | – | – | – | – | – | – | –
3 | O=C(N/C(=C\c1ccc(F)cc1)c1nc2ccccc2[nH]1)c1ccccc1 | > 100 | > 100 | > 100 | > 100 | > 100 | > 100 | > 100 | > 100 | > 100 | > 100 | – | – | – | – | – | – | – | – | – | –
4 | CN(C)CCOc1ccc2c(c1)C(=O)/C(=C\c1ncc([N+](=O)[O-])n1C)C2 | 2.4 | 2.49 | 1.83 | 3.7 | 1.28 | 3.25 | 3.11 | > 100 | > 20.5 | 1.69 | 0.386 | 0.851 | 0.543 | 1.31 | 0.316 | 0.701 | 0.489 | 1.39 | 0.95 | 0.371
5 | C=CCO[C@H]1CC[C@@]2(C)C(CC[C@]3(C)C2CC=C2[C@@H]4[C@@H](C)C(C)CC[C@]4(C(=O)O)CCC23C)C1(C)C (stereo partly specified) | 33.2 | 28.3 | 34.6 | 39.6 | 25.5 | 32.4 | 40.5 | 28.9 | 36.6 | 38.4 | – | – | – | – | – | – | – | – | – | –
6 | CN(C)C(=S)/N=c1\ss/c(=N\S(=O)(=O)c2ccccc2)n1C | > 100 | > 100 | > 100 | > 100 | > 100 | > 100 | > 100 | > 100 | > 100 | > 100 | – | – | – | – | – | – | – | – | – | –
7 | CSCC[C@H](NC(=O)[C@@H](N)CC(N)=O)C(=O)N[C@@H](Cc1c[nH]c2ccccc12)C(=O)N[C@@H](CCC(N)=O)C(=O)N[C@@H](CCC(=O)O)C(=O)N[C@H](C(=O)NCC(=O)N[C@@H](CCCCN)C(=O)N[C@H](C)C(=O)O)C(C)C (H-NMWQEVGK[dA]-OH) | > 100 | > 100 | > 100 | > 100 | > 100 | > 100 | > 100 | > 100 | > 100 | > 100 | – | – | – | – | – | – | – | – | – | –
8 | O=C1C(=Cc2ccc(F)cc2)C(=O)c2ccccc21 | > 100 | > 100 | > 100 | > 100 | > 100 | > 100 | > 100 | > 100 | > 100 | > 100 | – | – | – | – | – | – | – | – | – | –
9 | c1ccc(-c2cc3n4c(-c5ccccc5)nn(-c5ccccc5)c4cnc-3n2)cc1 | > 50 | > 50 | > 50 | > 50 | > 50 | > 50 | > 50 | > 50 | > 50 | > 50 | 15.1 | > 50 | > 50 | > 50 | 3.61 | 12 | 10.1 | > 50 | > 50 | 4.58
10 | C/C(=N\Nc1n[nH]c(=S)n1N)c1c(O)cc(C)oc1=O | > 100 | > 100 | > 100 | > 100 | > 100 | > 100 | > 100 | > 100 | > 100 | > 100 | – | – | – | – | – | – | – | – | – | –
11 | C=C1C(=O)OC2(C)CCC1CC1OC1(C)CCC=C(C)CCC2O (stereo unspecified) | > 100 | > 100 | > 100 | > 100 | > 100 | > 100 | > 100 | > 100 | > 100 | > 100 | – | – | – | – | – | – | – | – | – | –
12 | CC1=C(SCCC(=O)OC(C[Se]C2=C(C)C(=O)c3ccccc3C2=O)C(=O)NC(C)(C)C)C(=O)c2ccccc2C1=O (stereo unspecified) | 3.36 | 2.83 | 2.67 | 4.14 | 1.44 | 2.13 | 2.88 | 1.2 | 2.74 | 3.89 | 1.65 | 1.48 | 1.32 | 1.87 | 0.384 | 0.793 | 1.55 | 0.306 | 1.28 | 2.01
13 | NC(=O)c1nc(-c2ccc(Cl)c(Cl)c2)nc2ccccc12 | > 100 | > 100 | > 100 | > 100 | > 100 | 4.74 | > 100 | > 100 | > 21.8 | 30 | – | – | – | – | – | – | – | – | – | –
14 | COc1ccc2c(c1)[nH]c1c3ccc(OC)cc3oc(=O)c21 | > 100 | > 100 | > 100 | > 100 | > 100 | > 100 | > 100 | > 100 | > 100 | > 100 | – | – | – | – | – | – | – | – | – | –
15 | NC1=C(O)C(=O)C(c2c[nH]c3ccc(OCc4ccccc4)cc23)O1 (stereo unspecified) | > 100 | > 100 | > 100 | > 100 | > 100 | > 100 | > 100 | > 100 | > 100 | > 100 | – | – | – | – | – | – | – | > 100 | – | –
16 | CCOC(=O)C(=O)Nc1nc2ccc(C)cc2s1 | > 100 | > 100 | > 100 | > 100 | > 100 | > 100 | > 100 | > 100 | > 100 | > 100 | – | – | – | – | – | – | – | – | – | –
17 | CNC(=O)c1cc(-c2ccc(F)cc2)cc(-c2ccc(S(=O)(=O)N3CCCC3)cc2)c1N | > 25 | > 25 | > 25 | > 25 | > 25 | > 25 | > 25 | > 25 | > 25 | > 25 | 12.6 | > 23.1 | > 25 | > 25 | 11.6 | 4.9 | > 25 | > 20.7 | > 25 | > 25
